# In patent US20240041959A1, “NOVEL MODIFIED REOVIRUS AND USE THEREOF” (priority 2020, published 2024):
# Legend:
# normal cell line HS27 = assay: WST cell viability in normal cell line (Example 3); type: cell-based, human; conditions: HS27, 3 days, FIG. 1A
# Method: (§1) The cell lines used in this example are as follows: normal cell line HS27, and paclitaxel-resistant cancer cell lines Skmel28, A375, and B16F10. Each cell line was cultured in DMEM medium containing 10% fetal bovine serum and seeded at a density of 3,000 cells/well in a 96-well plate, followed by incubation at 37° C. and 5% CO2 for 24 hours. RP116 was serially diluted at concentrations ranging from 0.008 to 1,000 MOI (Multiplicity of Infection) and treated to the prepared cells, and further incubated for three days at 37° C. and 5% CO2. The number of surviving cells was measured using a WST kit (DoGen, Seoul, South Korea, Cat No: EZ-3000) according to the manufacturer's instructions.
# [1] = system: paclitaxel-resistant cancer cell lines Skmel28, A375, and B16F10; assay: WST cell viability in paclitaxel-resistant cancer cell lines (Example 3); type: cell-based; conditions: even at high concentrations of 100 nM or more, FIG. 1B
# Method: as §1, with “RP116 was serially diluted at concentrations ranging from 0.008 to 1,000 MOI (Multiplicity of Infection) and treated to the prepared cells, and further incubated for three days at 37° C. and 5% CO2.” left out
smiles,measurement,setting,value
CC(=O)O[C@H]1C(=O)[C@@]2(C)[C@H]([C@H](OC(=O)c3ccccc3)[C@]3(O)C[C@H](OC(=O)[C@H](O)[C@@H](NC(=O)c4ccccc4)c4ccccc4)C(C)=C1C3(C)C)[C@]1(OC(C)=O)CO[C@@H]1C[C@@H]2O [paclitaxel],cell viability of normal cell line vs control group,normal cell line HS27,cell viability decreased in a concentration-dependent manner
same,cell viability of paclitaxel-resistant cancer cells vs control group,[1],no significant difference in cell viability compared to the control group
